# Laboratory results taken from US6855329B1, “Surface coating spatially controlled patterns” (Massachusetts Institute of Technology, priority 1998, dated 2005).
# How the values were obtained:
# [1] = system: smooth muscle cells, fibroblasts or platelets; conditions: binds to the integrin on human endothelial cells; cited from earlier work
# [2] = cited from earlier work
# [3] = system: Bovine aortic endothelial cells (BAECs); conditions: 48hr
# Procedure: (§1) A patterned polymer surface is prepared as described in Example 1;
# (§2) Bovine aortic endothelial cells (BAECs) were maintained in low glucose Dulbecco's modifed Eagle's medium (DMEM) supplemented with 10% fetal bovine serum, 0.5% penicillin, 0.5% streptomycin and 1% L-glutamine in a humidified incubator at 37° C. and 5% CO2. Cells were passaged by trypsinisation before reaching confluence, usually every fifth day. Fresh media were added every other day. PC12 cells (ATCC CRL 1721) were grown in suspension culture in F-12K media supplemented with 15% horse serum, 2.5% fetal bovein serum, 0.5% penicillin, 0.5% streptomycin and 1% L-glutamine in a humidified incubator at 37° C. and 5% CO2. Cells were passaged 1:5 every third day. All cell culture reagents were obtained from Sigma unless otherwise stated.
# (§3) BAECs between passages 7 and 9 were removed from tissue culture flasks by trypsinisation, pelleted by centrifugation, resuspended, washed three times and diluted to the appropriate concentration in serum-free MDEM. PC12 cells were primed with culture medium containing 50 ng/ml 7S nerve growth factor (NGF) 48 h prior to the experiment. The cells were pelleted by centrifugation, washed three times with serum-free F-12K medium, passed through a 22-guage needle to obtain a single cell suspension, and diluted to the appropriate concentration with serum-free. F-12K medium supplemented with 50ng/ml 7S NGF. For both cell types, approximately 10,000 cells/cm^2 were added to each sample and the plates returned to the incubator for the duration of the experiment (48hr). At the end point of the experiment, the samples were washed gently with PBS to remove unattached cells and visualised with a Nikon Diaphot TMD inverted microscope equipped with a Hitachi HV-C20 high resolution CCD video camera using phase contrast objectives. Images were digitised using NIH Image (v1.61) image analysis software. In addition, some BAEC samples were fixed in 10% neutral buffered formalin for 10 min, washed with water, and stained with hematoxylin for visualisation.
# PC12 cells = conditions: NGF-primed cells, 48hr
# Procedure: as §1, §2, §3
substance,measurement,setting,value
REDV (SEQ ID NO:4),"adhesion or spreading of smooth muscle cells, fibroblasts or platelets",[1],does not support adhesion or spreading
IKVAV (SEQ ID NO:2),water solubility,[2],not significantly water soluble
biotin-G11 GRGDS (SEQ ID NO:18),cell adhesion to the 30 or 12 μm-wide lines,[3]; 30 or 12 μm-wide lines,little cell adhesion
same,cell coverage of the 70 and 50 μm width lines,[3]; 70 and 50 μm width lines,Complete cell coverage
same,adhesion and spreading of BAECs on functionalised lines,"[3]; serum-free medium, approximately 10,000 cells/cm^2, no adhesion to unfunctionalised areas between the lines",adhered and spread
CSRARKQAASIKVAVSADR,water solubility,[2],water soluble
biotin-G5CSRARKQAASIKVAVSADR (SEQ ID NO:19),neurite outgrowth of PC12 cells on the micropattern,PC12 cells; neurites restricted from crossing the line boundary,Directionally controlled neurite outgrowth was stimulated
same,adherence of PC12 cells to functionalised lines,"PC12 cells; serum-free F-12K with 50ng/ml 7S NGF, only a small degree of cell adhesion between the lines",selective adherence
